# The source made the active and inactive calls.
# Assays:
# [1] = molecular target: Polyadenylate-binding protein 1 (Homo sapiens, UniProt P11940); assay: blockers of PABP interaction with poly(A) – biochemical, fluorescence polarization, […] (AID 2014)
# [2] = molecular target: Eukaryotic translation initiation factor 4H (Homo sapiens, UniProt Q15056); assay: eIF4H binding inhibition – biochemical, uHTS, fluorescence polarization, translation initiation inhibitor project, primary screen (AID 2012)
# [3] = molecular target: 5-hydroxytryptamine receptor 1A (Homo sapiens, UniProt P08908); assay type: functional
# Sequence of 5-hydroxytryptamine receptor 1A (P08908 whole entry, the tested form may be a part): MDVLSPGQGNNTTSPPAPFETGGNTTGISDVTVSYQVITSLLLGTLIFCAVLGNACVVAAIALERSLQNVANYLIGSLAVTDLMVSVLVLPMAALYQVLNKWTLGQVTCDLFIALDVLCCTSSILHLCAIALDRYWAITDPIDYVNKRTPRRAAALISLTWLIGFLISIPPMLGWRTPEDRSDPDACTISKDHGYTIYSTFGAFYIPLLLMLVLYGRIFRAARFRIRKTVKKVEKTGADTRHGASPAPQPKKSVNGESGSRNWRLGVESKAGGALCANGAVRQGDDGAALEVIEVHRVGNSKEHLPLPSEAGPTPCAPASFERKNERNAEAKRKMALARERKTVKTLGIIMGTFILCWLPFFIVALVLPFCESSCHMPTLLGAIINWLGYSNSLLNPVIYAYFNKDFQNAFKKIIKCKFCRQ
# [4] = molecular target: T1, Carboxy-terminal domain RNA polymerase II polypeptide A small phosphatase 1 (Homo sapiens, UniProt Q9GZU7); assay: CTDSP1 inhibitors, concentration-response, biochemical, absorbance readout, ultra-high-throughput screen actives (AID 540297); assay type: functional
# T1 sequence (Q9GZU7 whole entry): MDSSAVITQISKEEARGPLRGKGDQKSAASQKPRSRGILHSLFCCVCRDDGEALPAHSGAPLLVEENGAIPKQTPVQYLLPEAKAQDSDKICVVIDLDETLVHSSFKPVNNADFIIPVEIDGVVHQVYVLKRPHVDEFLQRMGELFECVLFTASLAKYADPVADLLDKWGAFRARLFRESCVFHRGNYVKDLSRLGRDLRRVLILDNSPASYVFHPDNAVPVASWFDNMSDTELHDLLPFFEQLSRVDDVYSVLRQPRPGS
# [5] = molecular target: T2, Rac GTPase-activating protein 1 (Homo sapiens, UniProt Q9H0H5); assay: blockers of MgcRacGAP-driven Rac1 GTP hydrolysis – biochemical, ADP Hunter fluorescence, primary and confirmatory, confirmation (AID 624330); assay type: functional
# T2 sequence (Q9H0H5 whole entry): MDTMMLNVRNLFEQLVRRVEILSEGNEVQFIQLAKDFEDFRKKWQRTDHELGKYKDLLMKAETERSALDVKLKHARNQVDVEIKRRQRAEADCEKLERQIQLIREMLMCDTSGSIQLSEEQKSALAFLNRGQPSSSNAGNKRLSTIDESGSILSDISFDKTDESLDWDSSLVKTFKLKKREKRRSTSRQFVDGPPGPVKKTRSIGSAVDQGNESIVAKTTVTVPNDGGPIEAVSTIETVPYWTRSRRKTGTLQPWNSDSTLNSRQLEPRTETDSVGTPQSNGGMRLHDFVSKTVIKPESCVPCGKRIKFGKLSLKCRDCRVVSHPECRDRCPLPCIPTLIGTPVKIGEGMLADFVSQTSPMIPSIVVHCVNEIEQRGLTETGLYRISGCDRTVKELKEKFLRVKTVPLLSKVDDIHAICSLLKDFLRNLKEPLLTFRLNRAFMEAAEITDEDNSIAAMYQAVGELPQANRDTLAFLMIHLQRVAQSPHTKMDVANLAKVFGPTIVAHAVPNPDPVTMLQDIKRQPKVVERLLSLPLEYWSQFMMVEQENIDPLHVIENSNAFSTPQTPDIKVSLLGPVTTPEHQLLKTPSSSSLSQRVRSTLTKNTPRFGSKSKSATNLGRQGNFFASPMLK
# [6] = A High Throughput Confirmatory Assay used to Identify Novel Compounds that Inhibit Mycobacterium Tuberculosis in the absence of Glycerol.; assay type: functional
# [7] = Trypanosoma cruzi growth suppression in host cells – NIH3T3 host cells, beta-gal luminescence, confirmation (AID 2044); assay type: functional, cell-based;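 note: intracellular parasites grown in NIH/3T3 mouse fibroblasts as host cells; luminescent beta-galactosidase reporter signal from transgenic T. cruzi replicating inside host cells; inhibitors lower the luminescence signal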
# [8] = M. tuberculosis H37Rv growth inhibitors, H37Rv strain (AID 1626); assay type: functional
# [9] = NIH3T3 cell viability loss – ATP luminescence, mouse fibroblasts, counter-screen, dose response (AID 2010); assay type: functional, cell-based;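 note: cells exposed to compound for about 90 hours before reading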
# Danio rerio = assay: In Vivo Angiogenesis Dose-Response Confirmation. [Related pubchem assays: 732 (Assay preceding this confirmatory assay.)]; assay type: functional, organism-based
# [10] = molecular target: Peroxisome proliferator-activated receptor gamma/Nuclear receptor corepressor 2 (Homo sapiens, UniProt P37231+Q9Y618); assay: Counterscreen for NR2E3 inverse agonists: TR-FRET-based biochemical high throughput dose response assay to identify inverse agonists of the interaction between peroxisome proliferator-activated receptor gamma (PPARg) and nuclear receptor co-repressor 2 (NCOR2).; assay type: functional
# Sequence of Peroxisome proliferator-activated receptor gamma/Nuclear receptor corepressor 2 (P37231 whole entry): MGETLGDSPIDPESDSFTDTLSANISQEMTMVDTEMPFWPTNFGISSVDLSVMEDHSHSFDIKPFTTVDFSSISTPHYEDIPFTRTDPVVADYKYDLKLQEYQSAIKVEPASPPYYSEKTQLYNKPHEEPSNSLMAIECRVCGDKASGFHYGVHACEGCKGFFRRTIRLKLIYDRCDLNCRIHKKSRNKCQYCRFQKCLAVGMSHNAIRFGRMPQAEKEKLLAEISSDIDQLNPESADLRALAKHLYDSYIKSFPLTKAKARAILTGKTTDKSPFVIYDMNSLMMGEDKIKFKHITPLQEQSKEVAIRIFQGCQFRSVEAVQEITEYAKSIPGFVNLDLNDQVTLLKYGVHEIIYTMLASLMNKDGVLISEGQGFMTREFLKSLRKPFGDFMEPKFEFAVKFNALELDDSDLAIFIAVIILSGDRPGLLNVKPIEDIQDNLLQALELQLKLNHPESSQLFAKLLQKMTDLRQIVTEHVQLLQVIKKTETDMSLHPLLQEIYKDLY
# Sequence of Peroxisome proliferator-activated receptor gamma/Nuclear receptor corepressor 2 (Q9Y618 whole entry): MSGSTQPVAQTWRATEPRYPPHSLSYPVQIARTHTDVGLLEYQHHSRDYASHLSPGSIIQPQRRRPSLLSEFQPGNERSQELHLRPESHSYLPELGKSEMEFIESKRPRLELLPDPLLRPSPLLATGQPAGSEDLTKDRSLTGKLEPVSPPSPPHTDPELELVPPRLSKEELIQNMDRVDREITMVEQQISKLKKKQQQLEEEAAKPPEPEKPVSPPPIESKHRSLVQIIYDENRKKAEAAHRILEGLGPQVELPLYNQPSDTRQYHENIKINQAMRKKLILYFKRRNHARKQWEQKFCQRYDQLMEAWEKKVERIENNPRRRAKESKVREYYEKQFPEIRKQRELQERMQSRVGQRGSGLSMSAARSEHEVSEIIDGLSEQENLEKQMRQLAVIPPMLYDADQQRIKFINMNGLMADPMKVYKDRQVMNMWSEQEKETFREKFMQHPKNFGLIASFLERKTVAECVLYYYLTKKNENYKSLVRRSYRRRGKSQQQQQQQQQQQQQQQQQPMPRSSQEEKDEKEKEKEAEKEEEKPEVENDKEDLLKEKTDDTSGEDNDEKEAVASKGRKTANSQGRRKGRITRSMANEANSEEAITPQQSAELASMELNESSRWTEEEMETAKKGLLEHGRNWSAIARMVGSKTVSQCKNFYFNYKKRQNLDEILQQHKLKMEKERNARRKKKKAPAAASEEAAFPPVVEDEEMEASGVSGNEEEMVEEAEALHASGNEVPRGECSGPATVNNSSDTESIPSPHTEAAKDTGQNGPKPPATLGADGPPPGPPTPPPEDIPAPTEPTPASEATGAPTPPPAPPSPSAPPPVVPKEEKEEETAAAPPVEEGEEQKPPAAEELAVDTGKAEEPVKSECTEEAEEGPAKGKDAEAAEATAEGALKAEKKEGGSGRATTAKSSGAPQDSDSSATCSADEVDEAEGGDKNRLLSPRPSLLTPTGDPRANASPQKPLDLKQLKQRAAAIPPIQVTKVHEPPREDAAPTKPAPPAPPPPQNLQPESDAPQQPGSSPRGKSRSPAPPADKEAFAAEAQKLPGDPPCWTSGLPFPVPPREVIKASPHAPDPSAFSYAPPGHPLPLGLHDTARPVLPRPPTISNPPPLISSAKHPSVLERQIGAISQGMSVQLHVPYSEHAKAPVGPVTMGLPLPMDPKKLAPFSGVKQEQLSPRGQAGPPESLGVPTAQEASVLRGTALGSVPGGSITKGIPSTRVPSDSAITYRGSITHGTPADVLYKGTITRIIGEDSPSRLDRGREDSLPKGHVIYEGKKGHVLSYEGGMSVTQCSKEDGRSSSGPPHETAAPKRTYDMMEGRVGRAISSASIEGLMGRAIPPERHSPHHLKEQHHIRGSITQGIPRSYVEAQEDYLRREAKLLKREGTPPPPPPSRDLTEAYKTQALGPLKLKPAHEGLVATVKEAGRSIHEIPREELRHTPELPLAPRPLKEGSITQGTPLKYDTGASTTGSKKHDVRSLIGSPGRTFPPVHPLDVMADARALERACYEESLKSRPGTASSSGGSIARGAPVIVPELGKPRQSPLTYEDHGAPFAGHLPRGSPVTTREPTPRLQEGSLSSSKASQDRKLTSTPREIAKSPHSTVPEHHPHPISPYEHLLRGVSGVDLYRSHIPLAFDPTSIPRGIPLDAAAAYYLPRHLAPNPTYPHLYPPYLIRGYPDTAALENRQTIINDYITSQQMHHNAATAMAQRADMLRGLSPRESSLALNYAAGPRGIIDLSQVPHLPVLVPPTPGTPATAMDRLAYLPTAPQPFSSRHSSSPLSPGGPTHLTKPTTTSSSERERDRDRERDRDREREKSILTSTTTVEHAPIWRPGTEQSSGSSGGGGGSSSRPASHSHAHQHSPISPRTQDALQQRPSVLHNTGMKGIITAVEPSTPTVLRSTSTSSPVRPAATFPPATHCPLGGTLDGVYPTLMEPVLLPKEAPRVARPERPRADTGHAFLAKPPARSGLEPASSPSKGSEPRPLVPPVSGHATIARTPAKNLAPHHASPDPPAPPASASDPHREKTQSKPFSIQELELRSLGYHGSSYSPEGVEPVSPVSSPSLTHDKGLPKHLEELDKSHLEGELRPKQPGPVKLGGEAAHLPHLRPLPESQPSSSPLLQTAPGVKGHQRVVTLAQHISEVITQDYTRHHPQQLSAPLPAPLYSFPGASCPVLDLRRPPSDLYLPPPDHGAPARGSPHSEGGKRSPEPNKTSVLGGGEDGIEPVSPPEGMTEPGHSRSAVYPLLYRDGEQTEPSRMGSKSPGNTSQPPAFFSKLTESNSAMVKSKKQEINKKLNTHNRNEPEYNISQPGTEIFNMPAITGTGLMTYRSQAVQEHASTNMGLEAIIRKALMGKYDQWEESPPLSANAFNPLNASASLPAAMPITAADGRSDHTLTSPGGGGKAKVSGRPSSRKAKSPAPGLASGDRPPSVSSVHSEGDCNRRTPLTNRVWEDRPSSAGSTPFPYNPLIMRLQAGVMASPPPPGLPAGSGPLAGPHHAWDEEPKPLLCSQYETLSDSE
# [11] = molecular target: Photoreceptor-specific nuclear receptor (Homo sapiens, UniProt Q9Y5X4); assay: ligands suppressing NR2E3 nuclear receptor activity – biochemical, TR-FRET, dose response (AID 463256); assay type: functional
# Sequence of Photoreceptor-specific nuclear receptor (Q9Y5X4 whole entry): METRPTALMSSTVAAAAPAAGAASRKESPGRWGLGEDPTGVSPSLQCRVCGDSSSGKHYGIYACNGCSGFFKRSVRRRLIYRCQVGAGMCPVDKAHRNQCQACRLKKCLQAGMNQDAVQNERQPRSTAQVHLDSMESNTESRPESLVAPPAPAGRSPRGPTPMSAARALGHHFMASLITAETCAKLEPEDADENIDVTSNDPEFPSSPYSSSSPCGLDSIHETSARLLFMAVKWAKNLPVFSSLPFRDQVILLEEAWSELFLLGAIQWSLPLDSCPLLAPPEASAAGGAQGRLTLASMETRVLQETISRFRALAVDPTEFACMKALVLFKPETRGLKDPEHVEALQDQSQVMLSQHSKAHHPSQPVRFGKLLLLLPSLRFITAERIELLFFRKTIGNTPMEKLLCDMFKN
# Sequence of Polyadenylate-binding protein 1 (P11940 whole entry): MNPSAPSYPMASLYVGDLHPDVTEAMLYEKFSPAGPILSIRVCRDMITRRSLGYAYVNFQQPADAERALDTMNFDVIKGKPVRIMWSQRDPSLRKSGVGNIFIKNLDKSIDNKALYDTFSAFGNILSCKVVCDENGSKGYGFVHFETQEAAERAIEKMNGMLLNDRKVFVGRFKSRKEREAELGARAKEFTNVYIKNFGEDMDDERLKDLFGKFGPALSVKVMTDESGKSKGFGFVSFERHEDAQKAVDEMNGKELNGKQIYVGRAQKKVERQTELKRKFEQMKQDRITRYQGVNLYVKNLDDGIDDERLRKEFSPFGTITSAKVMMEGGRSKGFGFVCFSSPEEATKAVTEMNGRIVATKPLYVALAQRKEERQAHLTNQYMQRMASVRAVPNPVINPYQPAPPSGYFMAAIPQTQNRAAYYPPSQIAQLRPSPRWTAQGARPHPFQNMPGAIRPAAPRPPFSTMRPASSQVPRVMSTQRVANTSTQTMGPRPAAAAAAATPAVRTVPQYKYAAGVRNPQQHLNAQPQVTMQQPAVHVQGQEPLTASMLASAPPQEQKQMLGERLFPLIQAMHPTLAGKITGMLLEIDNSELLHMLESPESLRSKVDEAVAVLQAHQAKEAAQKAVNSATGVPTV
smiles,measurement,setting,value
C[N+]1=C2CCCCCN2C(O)(c2ccccc2)C1 (configuration not stated),IC50,[1],3.25 µM (active)
same,IC50,[2],75.1 µM (active)
same,EC50,[3],13.8 µM (not active)
same,IC50,[4],7.03 µM (active)
O=C(NC1CCN(C(=O)N2c3ccccc3Sc3ccccc32)CC1)c1ccccc1F,IC50,[5],115 µM (active)
same,IC50,[6],> 100 µM (active)
CCc1ccccc1NC(=O)c1ccc([N+](=O)[O-])s1,EC50,[7],0.471 µM (active)
same,IC50,[8],> 100 µM (active)
same,EC50,[9],> 30 µM (not active)
Cc1cccc2c1NC(=O)/C2=C1\Nc2ccc(Br)cc2C1=O,IC50,Danio rerio,0.52 µM (not active)
COc1ccc(-c2ccc(SCC(=O)Nc3nccs3)nn2)cc1OC,IC50,[10],6.57 µM (active)
same,IC50,[11],7.04 µM (active)

# Reference: ChEMBL document CHEMBL1201862, “PubChem BioAssay data set” (2004)
